Structures can show the parent of a compound that is named as a salt. Where two headings read alike, the source gives them in different places.
Columns and labels:
T. b. brucei = experiment: In vitro antitrypanosomal activity against T. brucei (growth inhibition); assay type: cell-based, Trypanosoma brucei; details: Trypanosoma brucei
Experimental: Primary hits from the screen were further characterized using a dose-response assay format to determine the EC50. In parallel, the cytotoxicities of these compounds were determined against a proliferating human hepatoma cell line (Huh7). […] SI—CC50/EC50). The final set of confirmed T. brucei hits consisted of 1035 inhibitors. […] In vitro antitrypanosomal activities against T. b. rhodesiense (STIB9000) and cytotoxicities against L6 rat myoblast cells were measured following established protocols (Orhan et al., Mar. Drugs 8:47 (2010). […] All wells including negative controls contained a final of 0.4% DMSO. After incubation of the plates at 37° C. for 48 h, the parasite density was determined using the CellTiter-Glo reagent (Promega), a firefly luciferase assay system that measures the amount of cellular ATP present in plate wells.

Trypanosoma cruzi = experiment: Efficacy against T. cruzi in vitro; assay type: cell-based; details: Trypanosoma cruzi; Table 16; read-out: T. Cruzi EC50
[1] = Distribution between mouse plasma and brain (brain penetration, ip); assay type: in vivo
Experimental: For distribution of compounds between mouse plasma and brain, mice (in groups of 3) were injected with test compounds (5 mg/kg ip) and sacrificed at the indicated times for collection of plasma and brain. Compound was dissolved in 0.4 mL of dosing solution (7% Tween 80, 3% ethanol, 5% DMSO, 0.9% saline) for ip injections. The brains were weighed and immediately frozen, then later homogenized in acetonitrile using a Dounce homogenizer. Prior to animal studies, recovery of test compound was carried out by adding a known amount to a mouse brain in the test extraction solvent and performing the homogenization. Compound recovery was determined by liquid chromatography/tandem mass spectrometry analysis relative to a standard compound amount. Blood was taken from the same mice in heparinized capillary tubes (Fisherbrand) for determination of compound concentration in plasma. The concentration of compound in the brain was obtained by dividing the moles of compound in the brain by the brain volume (obtained from the brain weight assuming 1 g is 1 mL) and correcting for the brain vasculature volume of 2.5% by weight.
Brain penetration studies (Table 14) were initially performed upon compounds 1, 2, and 3, but were expanded to include other compounds in order to explore the SAR of brain penetration. Groups of three mice were given single 5 mg/kg ip doses of the test compounds and were sacrificed 1 h post-dose.

[2] = test system: human lymphocytes CRL-8155; experiment: Cytotoxicity against CRL-8155 cells; details: human lymphoblasts
Experimental: The selectivity of each compound for the parasite over each of the two cell lines was calculated.

human hepatocytes HepG2 = experiment: Cytotoxicity against HepG2 cells
[3] = Table 9, read-out: T. brucei EC50
[4] = Table 9, read-out: T. brucei EC90
[5] = Table 16, read-out: T. b. brucei EC50
[6] = Table 17, read-out: T. b. brucei EC50
[7] = Table 17, read-out: T. b. brucei EC90
[8] = Table 14, mice, single ip dose 5 mg/kg, one hour post-dose, ± SEM of 3 mice (compound 3: 6 mice)

Structure (SMILES): O=C(Nc1ccc2sc(-c3ccccc3)nc2c1)c1nccs1 [Compound 20, N-(2-Phenylbenzo[d]thiazol-5-yl)thiazole-2-carboxamide]
- EC50 (T. b. brucei; [3]): 5860 nM
- EC90 (T. b. brucei; [4]): > 10000 nM

Structure (SMILES): O=C(Nc1ccn2cc(-c3cccc(F)c3F)nc2c1)N1CC[C@H](F)C1 [Compound 44, (3S)-N-[2-(2,3-difluorophenyl)imidazo[1,2-a]pyridin-7-yl]-3-fluoropyrrolidine-1-carboxamide]
- EC50 (T. b. brucei; [5]): 180 nM
- EC50 (Trypanosoma cruzi): 940 nM

Structure (SMILES): O=C(Nc1ccn2cc(-c3ccccc3)nc2c1)N1CCCCC1 [Compound 52, N-{2-phenylimidazo[1,2-a]pyridin-7-yl}piperidine-1-carboxamide]
- EC50 (T. b. brucei; [5]): 2510 nM
- EC50 (Trypanosoma cruzi): 2750 nM

Structure (SMILES): O=C(Nc1ccc2sc(-c3ccc(F)c(F)c3)nc2c1Br)N1CC[C@H](F)C1 [Compound 55]
- EC50 (T. b. brucei; [6]): > 20000 nM
- EC90 (T. b. brucei; [7]): > 20000 nM

Structure (SMILES): O=C(Nc1ccn2cc(-c3ccc(F)c(F)c3)nc2c1)N1CCCCC1 [Compound 43, N-[2-(3,4-difluorophenyl)imidazo[1,2-a]pyridin-7-yl]piperidine-1-carboxamide]
- EC50 (T. b. brucei; [5]): 1200 nM
- EC50 (Trypanosoma cruzi): 2840 nM

Structure (SMILES): O=C(Nc1ccc2sc(-c3ccccc3)nc2c1)c1ccsc1 [Compound 19, 2-Phenyl-5-(3-thienylamido)benzothiazole]
- EC50 (T. b. brucei; [3]): 1570 nM
- EC90 (T. b. brucei; [4]): 2490 nM

Structure (SMILES): O=C(Nc1ccc2sc(-c3cccc(F)c3)nc2c1)N1CCN(C(=O)Nc2ccc3sc(-c4cccc(F)c4)nc3c2)CC1 [Compound 31, N^1,N^4-Bis(2-(3-fluorophenyl)benzothiazol-5-yl)piperazine-1,4-dicarboxamide]
- EC50 (T. b. brucei; [3]): > 20000 nM
- EC90 (T. b. brucei; [4]): > 20000 nM

Structure (SMILES): O=C(Nc1ccn2cc(-c3ccc(F)c(F)c3)nc2c1)N1CCCC1 [Compound 42, N-[2-(3,4-difluorophenyl)imidazo[1,2-a]pyridin-7-yl]pyrrolidine-1-carboxamide]
- EC50 (T. b. brucei; [5]): 320 nM
- EC50 (Trypanosoma cruzi): 2240 nM

Structure (SMILES): O=C(Nc1ccc2[nH]c(-c3ccccc3)nc2c1)c1ccccc1 [Compound 14, 5-Benzamido-2-phenylbenzimidazole hydrochloride]
- EC50 (T. b. brucei; read-out: T. brucei EC50): > 10000 nM
- EC90 (T. b. brucei; read-out: T. brucei EC90): > 10000 nM

Structure (SMILES): O=C(Nc1ccn2cc(-c3cccc(F)c3)nc2c1)N1CCCCC1 [Compound 49, N-[2-(3-fluorophenyl)imidazo[1,2-a]pyridin-7-yl]piperidine-1-carboxamide]
- EC50 (T. b. brucei; [5]): 970 nM
- EC50 (Trypanosoma cruzi): 3100 nM

Structure (SMILES): O=C(Nc1ccc2oc(-c3ccccc3)nc2c1)N1CCCC1 [Compound 8, 2-Phenyl-5-N-pyrrolidylamidobenzoxazole]
- EC50 (T. b. brucei; Table 7, read-out: T. brucei EC50): 5250 nM
- EC50 (T. b. brucei; [3]): 5250 nM
- EC90 (T. b. brucei; [4]): > 10000 nM
- Brain/plasma ratio ([1]; Table 14, mice, single ip dose 5 mg/kg, one hour post-dose): 1.58 ± 0.484
- [compound]Brain [1, 8]: 0.397 ± 0.077 µM
- [compound]Plasma [1, 8]: 0.270 ± 0.036 µM
- Kp at 1 h ([1]; mouse, brain and plasma, intraperitoneal, 5 mg/kg, Table 7, groups of 3 mice, read-out: Average brain/plasma ratio): 1.58 ± 0.839
- concentration at 1 h ([1]; mouse, brain, intraperitoneal, 5 mg/kg, Table 7, groups of 3 mice, read-out: Average [compound] brain): 397 ± 130 nM
- concentration at 1 h ([1]; mouse, plasma, intraperitoneal, 5 mg/kg, Table 7, groups of 3 mice, read-out: Average [compound] plasma): 270 ± 62 nM

Structure (SMILES): O=C(Nc1ccn2cc(-c3ccccc3)nc2c1)N1CCCC1 [Compound 51, N-{2-phenylimidazo[1,2-a]pyridin-7-yl}pyrrolidine-1-carboxamide]
- EC50 (T. b. brucei; [5]): 2230 nM
- EC50 (Trypanosoma cruzi): 4460 nM

Structure (SMILES): N=C(N)c1ccc(OCCCCCOc2ccc(C(=N)N)cc2)cc1 [penth, Pentamidine, reference compound]
- EC50 ([2]; read-out: CRL-8155 EC50, concentration required to inhibit growth by 50%): 45400 nM
- EC90 ([2]; read-out: CRL-8155 EC90, concentration required to inhibit growth by 90%): > 100000 nM
- EC50 (T. b. brucei; Table 11, read-out: T. b. brucei EC50): 1.05 nM
- EC50 (human hepatocytes HepG2; Homo sapiens, HepG2, read-out: HepG2 EC50): > 100000 nM
- EC90 (human hepatocytes HepG2; read-out: HepG2 EC90, concentration required to inhibit growth by 90%, human hepatocytes): > 100000 nM

Structure (SMILES): O=C(Nc1cnc2sc(-c3ccc(F)c(F)c3)nc2c1)N1CC[C@H](F)C1 [Compound 56, (S)-2-(3,4-Difluorophenyl)-5-(3-fluoro-N-pyrrolidylamido)-7-azabenzothiazole]
- EC50 (T. b. brucei; [6]): 181 nM
- EC90 (T. b. brucei; [7]): 364 nM

Reference: patent US10399966B2, “Compounds for treatment of trypanosomes and neurological pathogens and uses thereof” (The University of North Carolina at Chapel Hill, priority 2016, dated 2019)
